The test system of one data set is Mus musculus. The data set can be described thus: Toxicity in Kunming mouse allografted with mouse H22 cells assessed as decrease in body weight at 20 mg/kg/day, ip measured every day for 8 days. Type of data set: organism-based. Details: route intraperitoneal. The following applies: in vivo, 192 h.
The next data set deals with H22. The data set is described as follows: Antitumor activity against mouse H22 cells allografted in Kunming mouse assessed as decrease in weight of tumor mass at 20 mg/kg/day, ip administered 8 days measured after 10 days relative to control. Also on record: scale not given: the % may be the effect or the level left. Type of data set: functional. The following applies: route intraperitoneal.

As to `O=c1[nH]cc(F)c(=O)[nH]1` [FLUOROURACIL], the figures for the Activity entry in the data set on Mus musculus and with H22 were “Toxic” and 81%, respectively.

These data come from ChEMBL document CHEMBL2375211, “2-methoxyjuglone induces apoptosis in HepG2 human hepatocellular carcinoma cells and exhibits in vivo antitumor activity in a H22 mouse hepatocellular carcinoma model” (J Nat Prod, 2013).
